Data: patent US20230263808A1 (UNIVERSITY OF FLORIDA RESEARCH FOUNDATION, INCORPORATED, priority 2020, published 2023)
“Also recorded” adds a separate entry of the source.

Legend:
[1] = system: primary human osteoblasts; assay: Osteoblast mineralization (Alizarin Red S) from mesenchymal stem cells; assay type: cell-based
Procedure: (§1) A) Each dot represents the effects of a compound in the indicated assays at 10 uM. N=4-6 from two different experiments. […] C) SR11466 is efficacious at inhibiting IL-6 secretion from A549 cells. C-E). […] D) Mitochondrial activity was measured in myoblasts using high content imaging with mitotracker dye after 24 treatment. New amino acid incorporation was measured with LICOR in cell western for puromycin (SunSet assay). E) top, MMTV-luciferase reporter data. N=3, mean+SEM. Bottom, Mineralization of primary human OBs was assayed after two weeks of differentiation from MSC and two weeks of mineralization. N=4, mean+SEM, 2-way ANOVA.
As a further test for dissociation, the compounds were profiled in primary human osteoblasts for effects on osteogenesis during 4 weeks of differentiation from mesenchymal stem cells. Specifically, osteoblast mineralization was examined as follows. Human mesenchymal stem cells (MSCs) at passage 2 were maintained in growth media consisted of alpha-MEM (Life Technologies, 32561-037) supplemented with 17% FBS (Sigma-Aldrich, 12303C), 2 mM L-glutarnine (Life Technologies, 25030-081), and 100 units/mL penicillin/streptomycin (Life Technologies, 15140-122). Effect of glucocorticoid receptor modulators on osteogenic differentiation of MSCs was quantified using Alizarin Red S (Sigma-Aldrich, A5533) staining. Briefly, human MSCs were seeded in the middle 8 wells of 48-well plates at plating density of 10,000 cells per well. PBS (Life Technologies, 10010-031) was added to surrounding wells to reduce evaporation of media in the middle wells during prolonged incubation. 24 h later, growth media was replaced by osteogenic induction media (OIM) consisted of low-glucose DMEM (Life Technologies, 10567-014) supplemented with 10% FBS (Sigma-Aldrich. 12303C), 50 μg/ml L-ascorbic-2-phosphate (Sigma-Aldrich, A8960), 10 mM β-glyceroiphosphate (Sigma-Aldrich, G9891), and glucocorticoid modulators. OIM containing test compounds was replaced every week. At the end of 2 weeks, monolayers were washed with PBS (Life Technologies, 10010-031), incubated in Richard-Allan Scientific™ Neutral Buffered Formalin (10%) (Thermo Scientific, 5725) for 2 h at room temperature, washed with deionized water and stained with Alizarin Red S for 30 min at room temperature. Monolayers were then rinsed 3×with deionized water until clear, stain was then extracted with 10% (w/v) cetylpyridinium chloride (Sigma-Aldrich, C0732) in 10 mM sodium phosphate (Sigma, S5011 and S5136), pH 7.0 for 15 min at room temperature and the amount of extracted dye quantified spectroscopically at 562 nm. Spectroscopic analysis performed using a synergy™ NEO HTS Multi-Mode Microplate Reader (BioTek Instruments, Inc.).

[2] = system: mitochondrial activity, pAKT, protein synthesis, and bone; assay: Compound profiling platform, overall profile (FIG. 15); assay type: cell-based; conditions: for overall profile in compound profiling (anabolic effects, agonism): 10 uM
Procedure: N=4-6 from two different experiments. […] D) Mitochondrial activity was measured in myoblasts using high content imaging with mitotracker dye after 24 treatment. New amino acid incorporation was measured with LICOR in cell western for puromycin (SunSet assay). […] N=3, mean+SEM. […] N=4, mean+SEM, 2-way ANOVA.
(§2) To avoid such effects on myogenesis, we switched myoblasts to differentiation media, and then on day 4, added 10 μM cytarabine, a chemotherapy agent that kills dividing cells, and then adding GCs on day 6 or 7 and completing assays in day 8 (FIG. 8).
(§3) Physiologically, the effects of GCs on protein balance and Glut4 translocation vary in vivo depending upon the stressor. For example, GCs mediate atrophy in response to fasting but not exercise. […] To assess protein degradation, we measured chymotrypsin-like proteasomal activity (FIG. 2, A). The activating phosphorylation of AKT at Thr308 (pAKT) was measured using a LI-COR In-Cell Western assay (FIG. 2, B and C). The rate-limiting step in insulin-mediated glucose uptake is the translocation of the glucose transporter, Glut4, to the surface membrane, which we also measured by In-Cell Western without permeabilizing the myotubes (FIG. 2, D). Surface Sensing of Translation (SUnSET) (Schmidt et al., Nat Methods 6, 275-277, 2009) assay was used to measure protein synthesis by In-Cell Western, following treatment of myotubes with a low dose of puromycin, which incorporates into translating proteins, but at a low enough level to provide a readout for global protein synthesis (FIG. 2, E). Lastly, we developed a high-content imaging assay in myoblasts stained with a MitoTracker dye, so that individual mitochondrial networks could be visualized with adequate resolution to quantitate area, segmentation, branching, and fluorescence intensity which is a measure of mitochondrial membrane potential (ψm).
Additional studies were performed to assess activities of the various compounds identified from the previous profiling.

C2C12 myotubes [3] = assay: Protein degradation: chymotrypsin-like proteasomal activity in C2C12 myotubes; assay type: cell-based, mouse
Procedure: (§4) A) C2C12 myotubes were assayed for chymotrypsin-like proteasomal activity. […] C) Quantitation of the ICW in panel B. D) ICW for surface expression of Glut4 on L6 myotubes. E) ICW for insulin-induced incorporation of puromycin into C2C12 myotube surface proteins. F-G) High-content imaging and analysis of C2C12 myoblasts stained with a Mitotracker dye. H) Assay reproducibility from screening 22 compounds on two separate occasions. The Pearson correlation coefficient, r, and its associated p-value is indicated.
(§5) C2C12 myocytes were used in all assays, except in the Glut4 translocation assay where L6 rat myocytes were used. ICW, In-Cell Western. Also see Methods.
as §2
as §3, with “Lastly, we developed a high-content imaging assay in myoblasts stained with a MitoTracker dye, so that individual mitochondrial networks could be visualized with adequate resolution to quantitate area, segmentation, branching, and fluorescence intensity which is a measure of mitochondrial membrane potential (ψm).” left out

L6 myotubes = assay: Glut4 translocation to the myotube surface (In-Cell Western); assay type: cell-based, rat
Procedure: as §4, §5, §3

C2C12 myoblasts = assay: Mitochondrial potential, high-content imaging with MitoTracker dye; assay type: cell-based, mouse
Procedure: as §4, §1, §3

[4] = system: IL-1β-induced IL-6 secretion by A549 lung cells; assay: IL-1β-induced IL-6 secretion by A549 lung cells (AlphaLISA); assay type: cell-based; conditions: 10 μM
Description: (§6) A) Correlation of correlation (COC) plots where each point represents the Pearson correlation coefficient, r, between a distinct gene expression or GR-peptide interaction assay with assays indicated on the x and y axes. B) The effects of all tested compounds on IL-1β-induced secretion of IL-6 (y axes) and GC-regulated phenotypes indicated on the x axes. C) The effects of all tested compounds on IL-1β-induced secretion of IL-6 (y axis) and bone mineralization (x axis). D) IL-1β-induced IL-6 production by A549 cells treated with 10 μM of the indicated compounds was compared by AlphaLISA. E-H) Myoblasts were assayed as described in FIG. 8. I) Representative myoblasts imaged during the mitochondrial potential assay. J) Plasma TNFα levels of C57BL/6 male mice treated pretreated with the indicated ligands. K) Changes in lean mass of mice in panel J were determined by whole-body NMR after an additional 18 h LPS treatment. Data shown are mean+SEM.
In order to understand whether effects on skeletal muscle could be dissociated from anti-inflammatory effects of the ligands, we profiled the compounds for suppression of IL1β-induced IL-6 secretion by A549 lung cells. Examining the correlations between assays can be used to identify dissociated assays that selectively correlate with a given phenotype, predicting discovery of dissociated ligands. […] We call this a correlation of correlations (COC) plot. […] These include recruitment of NCOA2 and NCOA3 peptides, coactivators that we and others have shown to be required for GC-dependent suppression of inflammation in different cell types (FIG. 11, A). However, for the mitochondrial assay and IL-6, there are dissociated assays shown by points that are far out from the regression line in the COC plot (FIG. 7, A). For example, interaction of CHD9 with GR predicted mitochondrial activity but not Glut4 translocation (FIG. 11, B), while interaction with the CENPR peptide selectively predicted effects on Glut4 translocation (FIG. 11, C). […] Assays that correlated with effects of the ligands on GR nuclear translocation were also highly correlated with Glut4 translocation and suppression of IL-6 secretion (FIG. 11, F). Therefore, the COC curves provide a way to identify common signaling mechanisms between different GR target tissues and signaling pathways.

GILZ mRNA = assay: GILZ gene expression; assay type: cell-based
LPS-induced TNFα = assay: LPS-induced plasma TNFα levels in mice; assay type: in vivo, C57BL/6 male mice; conditions: mice pretreated with ligand
Description: as §6

[5] = Loss of lean mass after a larger dose of LPS (whole-body NMR); assay type: in vivo, C57BL/6 male mice; conditions: additional 18 h LPS treatment
Description: as §6

[6] = background statement; cited from earlier work
myoblasts = assay: Myoblast proliferation and fusion into myotubes; assay type: cell-based
[7] = Lactate-tolerance test (rate of glucose production); assay type: in vivo, C57BL/6 male mice; conditions: after overnight fast; 10 mg/kg Dex or SR16024, 50 mg/kg SR11466
Description: A) The effects of all tested compounds on IL-1β-induced IL-6 production (x-axes) versus GR interaction with the indicated peptides. B-C) The effects of all tested compounds on the indicated GC-regulated phenotypes (x-axes) versus GR interaction with the CHD9_1023 and CENPR_1 peptides (y-axes). D-F) COC plots. Each point represents the Pearson correlation coefficient, r, between a distinct gene expression or GR-peptide interaction assay with assays indicated on the x and y axes. G) The effects of all tested compounds on IL-1β-induced IL-6 production (y-axes) versus insulin-induced protein synthesis. […] IL-β-induced IL-6 production by A549 cells treated with the indicated compounds was compared by AlphaLISA. […] Mice in panel K were subjected to a lactate-tolerance test (LTT).
We were also interested in whether the compounds would show dissociation between Glut4 translocation in skeletal muscle and gluconeogenesis in the liver, but enhanced glucose production is typically studied after weeks or months of GC treatment. However, we reasoned that an overnight fast should enable detection of effects after a single dose. […] Thus, profiling effects of GCs in the physiological context of nutrient deprivation allowed the discovery of two new types of glucocorticoids with improved profiles in skeletal muscle.

C2C12 myotubes [8] = assay: Insulin-induced protein synthesis (SUnSET, In-Cell Western) in C2C12 myotubes; assay type: cell-based, mouse; conditions: fasting conditions
Procedure: as §4, §5, §2, §3

pAKT in C2C12 myotubes = assay: Insulin-induced pAKT (Thr308) In-Cell Western; assay type: cell-based, mouse
Procedure: as §4
A) Pearson correlations were calculated between the indicated variables. The different lines indicate statistically significant correlations at the corresponding p-value thresholds. Solid lines indicate positive correlations, dashed lines indicate negative correlations. […]
Physiologically, the effects of GCs on protein balance and Glut4 translocation vary in vivo depending upon the stressor. […] To assess protein degradation, we measured chymotrypsin-like proteasomal activity (FIG. 2, A). The activating phosphorylation of AKT at Thr308 (pAKT) was measured using a LI-COR In-Cell Western assay (FIG. 2, B and C). The rate-limiting step in insulin-mediated glucose uptake is the translocation of the glucose transporter, Glut4, to the surface membrane, which we also measured by In-Cell Western without permeabilizing the myotubes (FIG. 2, D). […]

C[C@]12CC[C@H]3[C@@H](CCC4=CC(=O)CC[C@@]43C)[C@@H]1CC[C@@H]2O [testosterone, reference compound]
effect on mineralization (bone) [1]: no effect

CC#CC1(O)CCC2C3CCc4cc(C(=O)Nc5ccc(C)nc5)ccc4C3C(O)CC21C (stereo not drawn) [SR15419]
overall profile in compound profiling (anabolic effects, agonism) [2]: anabolic effects

Cc1ncccc1NC(=O)c1ccc2c(c1)CC[C@@H]1C[C@@](O)(C(F)(F)F)CC[C@@]21Cc1ccccc1 [PF802, reference compound]
effect on protein degradation (proteasomal) (C2C12 myotubes [3]): stimulated protein degradation as strongly as Dex | overall profile in compound profiling (anabolic effects, agonism) [2]: partial agonist | effect on Glut4 translocation (L6 myotubes): slightly improved compared to Dex | effect on mitochondrial activity / potential (C2C12 myoblasts): strongly inhibited

CC#CC1(O)CCC2C3CCc4cc(C(=O)Nc5cccnc5C)ccc4C3C(OCC)CC21C (stereo not drawn) [SR15961]
inhibition of IL-1β-induced IL-6 secretion (anti-inflammatory) [4]: fully inhibiting IL-6 secretion

CC#CC1(O)CCC2C3CCc4cc(C(=O)Nc5ncccc5C)ccc4C3C(O)CC21C (stereo not drawn) [SR15438]
overall profile in compound profiling (anabolic effects, agonism) [2]: anabolic effects

CC#CC1(O)CCC2C3CCc4cc(C(=O)Nc5cccnc5C)ccc4C3C(OCc3ccccc3)CC21C (stereo not drawn) [SR11469]
inhibition of IL-1β-induced IL-6 secretion (anti-inflammatory) [4]: weakly anti-inflammatory | overall profile in compound profiling (anabolic effects, agonism) [2]: more antagonistic SGRMs; also recorded: anabolic effects | GILZ gene expression (GILZ mRNA): not activating GILZ

C[C@@H]1C[C@H]2[C@@H]3CCC4=CC(=O)C=C[C@]4(C)[C@@]3(F)[C@@H](O)C[C@]2(C)[C@@]1(O)C(=O)CO [Dex, dexamethasone, reference compound]
LPS-induced TNFα levels in the blood (LPS-induced TNFα): strongly suppressed | loss of lean mass following a larger dose of LPS [5]: significantly worsened | effect on protein degradation (proteasomal) (C2C12 myotubes [3]): stimulated protein degradation | dosing at which effects on the insulin signaling pathway are shown ([2]; myotubes, serum starvation, insulin challenge, cytarabine treatment): 1 to 10 nM | concentration required for effects on protein balance in vitro [6]: 50 to 100 µM | potency for modulating Glut4 translocation (L6 myotubes; fasting conditions): low nM | fusion into myotubes (myoblasts): promotes fusion | myoblast proliferation (myoblasts): strongly inhibits | rate of glucose production in lactate tolerance test [7]: increased the rate of glucose production | Dex concentration sufficient to produce the maximal loss of mitochondrial oxidative capacity (C2C12 myoblasts): 1 nM | effect on mitochondrial activity / potential (C2C12 myoblasts): strongly inhibited; also recorded: reduced | potency for modulating protein synthesis (C2C12 myotubes [8]): low nM | insulin-mediated pAKT after 1 hr of treatment (pAKT in C2C12 myotubes; 1 hr treatment): not inhibited | potency for modulating pAKT (pAKT in C2C12 myotubes; fasting conditions): low nM

CC#CC1(O)CCC2C3CCc4cc(C(=O)Nc5cccnc5C)ccc4C3C(OCc3cccc(Cl)c3)CC21C (stereo not drawn) [SR16023]
overall profile in compound profiling (anabolic effects, agonism) [2]: anabolic effects

CC#CC1(O)CCC2C3CCc4cc(C(=O)Nc5cccnc5C)ccc4C3C(OC)CC21C (stereo not drawn) [SR15960]
inhibition of IL-1β-induced IL-6 secretion (anti-inflammatory) [4]: fully inhibiting IL-6 secretion
